Measurements published in the NIST ThermoML archive (doi:10.1016/j.fluid.2005.03.023).
Numbers after ± are expanded uncertainties.

Tests used:
[1] = Molar enthalpy of transition or fusion; settings: Crystal; DSC
[2] = Crystal; DTA

Compound | Molar enthalpy of transition or fusion [1] [kcal/mol] | Normal melting temperature [2] [°C]
CC(=O)c1cccc(O)c1 [1-(3-hydroxyphenyl)ethanone] | 5.58 ± 0.165 | 93.6 ± 0.5
CC(=O)c1ccc(O)cc1 [4'-hydroxyacetophenone] | 4.07 ± 0.127 | 108.2 ± 0.5
CC(=O)c1ccc(N)cc1 [4-acetylaniline] | 4.67 ± 0.141 | 105.1 ± 0.5
CC(=O)Nc1ccccc1 [N-phenylethanamide] | 5.12 ± 0.153 | 113.8 ± 0.5
